Consider 17 molecules from patent US20170334899A1, “AMINO-SUBSTITUTED ISOTHIAZOLES” (Bayer Pharma Aktiengesellschaft, priority 2014, published 2017).

Where only a bound is given, the exact number is not on record here.

The test deals with T1, catalytic domain of human Bub1 (amino acids 704-1085) (Homo sapiens, UniProt O43683).
T1 construct: catalytic domain of human Bub1 (amino acids 704-1085); His6 (N); made in house; host or cells: insect cells (Hi5)
T1 sequence (O43683 704-1085): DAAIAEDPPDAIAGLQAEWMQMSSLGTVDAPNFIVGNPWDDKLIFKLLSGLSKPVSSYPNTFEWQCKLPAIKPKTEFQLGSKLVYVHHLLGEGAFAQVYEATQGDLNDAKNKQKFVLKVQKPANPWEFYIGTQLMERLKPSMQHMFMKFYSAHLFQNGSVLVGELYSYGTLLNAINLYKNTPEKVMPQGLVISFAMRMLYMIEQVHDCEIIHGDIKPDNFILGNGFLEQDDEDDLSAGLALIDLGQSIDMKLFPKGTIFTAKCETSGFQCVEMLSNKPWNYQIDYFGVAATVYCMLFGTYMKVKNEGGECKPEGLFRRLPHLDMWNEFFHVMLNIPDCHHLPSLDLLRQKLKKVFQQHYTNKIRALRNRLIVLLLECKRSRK
Kind of test: Bub1 kinase assay (TR-FRET). Conditions: 10 μM ATP, avg, read-out: Bub1 avg (IC50 [mol/l]). In kind it is biochemical. The procedure, abridged: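 Readout is the 665/620 nm TR-FRET ratio from anti-phosphoserine antibody, Eu-labelled anti-mouse IgG and streptavidin-XL665, scaled between no-enzyme and uninhibited controls. Reaction: 1 μM biotinylated peptide, 10 μM ATP, 60 min, 22 °C, after 15 min compound preincubation with His6-Bub1 (704-1085, insect-expressed, ~200 ng/ml).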
In general terms: In TR-FRET formats the signal depends on donor and acceptor labels being close together.
Regarding `Cc1nsc(Nc2cnc(C(F)(F)F)cn2)c1C(=O)Nc1ccc(OC[C@@H]2CCCN(CC(F)(F)F)C2)nc1` [Example 376, 3-methyl-N-(6-{[(3R)-1-(2,2,2-trifluoroethyl)piperidin-3-yl]methoxy}pyridin-3-yl)-5-{[5-(trifluoromethyl)pyrazin-2-yl]amino}-1,2-thiazole-4-carboxamide], the IC50 is above 20 µM.

For `Cc1nsc(Nc2cnc(C(F)(F)F)cn2)c1C(=O)Nc1ccc(OC[C@@H]2CCCN(CCC(F)(F)F)C2)nc1` [Example 377, 3-methyl-5-{[5-(trifluoromethyl)pyrazin-2-yl]amino}-N-(6-{[(3R)-1-(3,3,3-trifluoropropyl)piperidin-3-yl]methoxy}pyridin-3-yl)-1,2-thiazole-4-carboxamide], the IC50 is above 20 µM. As to `Cc1nsc(Nc2cnc(C(F)(F)F)cn2)c1C(=O)Nc1ccc(O[C@@H]2CCN(CC(F)F)C2)nc1` [Example 379, N-(6-{[(3R)-1-(2,2-difluoroethyl)pyrrolidin-3-yl]oxy}pyridin-3-yl)-3-methyl-5-{[5-(trifluoromethyl)pyrazin-2-yl]amino}-1,2-thiazole-4-carboxamide], the IC50 was at least 20 µM. In the case of `Cc1nsc(Nc2cnc(C(F)(F)F)cn2)c1C(=O)Nc1ccc(O[C@@H]2CCN(CC(F)(F)F)C2)nc1` [Example 380, 3-methyl-N-(6-{[(3R)-1-(2,2,2-trifluoroethyl)pyrrolidin-3-yl]oxy}pyridin-3-yl)-5-{[5-(trifluoromethyl)pyrazin-2-yl]amino}-1,2-thiazole-4-carboxamide] it was above 20 µM; in that of `Cc1nsc(Nc2cnc(C(F)(F)F)cn2)c1C(=O)Nc1ccc(O[C@@H]2CCN(CCC(F)(F)F)C2)nc1` [Example 381, 3-methyl-5-{[5-(trifluoromethyl)pyrazin-2-yl]amino}-N-(6-{[(3R)-1-(3,3,3-trifluoropropyl)pyrrolidin-3-yl]oxy}pyridin-3-yl)-1,2-thiazole-4-carboxamide], above 20 µM. With `Cc1nsc(Nc2cnc(C(F)(F)F)cn2)c1C(=O)Nc1ccc(O[C@H]2CCN(CC(F)F)C2)nc1` [Example 382, N-(6-{[(3S)-1-(2,2-difluoroethyl)pyrrolidin-3-yl]oxy}pyridin-3-yl)-3-methyl-5-{[5-(trifluoromethyl)pyrazin-2-yl]amino}-1,2-thiazole-4-carboxamide] the figure was above 20 µM. With `Cc1nsc(Nc2cnc(C(F)(F)F)cn2)c1C(=O)Nc1ccc(O[C@H]2CCN(CC(F)(F)F)C2)nc1` [Example 383, 3-methyl-N-(6-{[(3S)-1-(2,2,2-trifluoroethyl)pyrrolidin-3-yl]oxy}pyridin-3-yl)-5-{[5-(trifluoromethyl)pyrazin-2-yl]amino}-1,2-thiazole-4-carboxamide] the figure was at least 20 µM; with `Cc1nsc(Nc2cnc(C(F)(F)F)cn2)c1C(=O)Nc1ccc(O[C@H]2CCN(CCC(F)(F)F)C2)nc1` [Example 384, 3-methyl-5-{[5-(trifluoromethyl)pyrazin-2-yl]amino}-N-(6-{[(3S)-1-(3,3,3-trifluoropropyl)pyrrolidin-3-yl]oxy}pyridin-3-yl)-1,2-thiazole-4-carboxamide], at least 20 µM; with `Cc1nsc(Nc2cnc(C(F)(F)F)cn2)c1C(=O)Nc1ccc(O[C@@H]2CCCN(CC(F)(F)F)C2)nc1` [Example 386, 3-methyl-N-(6-{[(3R)-1-(2,2,2-trifluoroethyl)piperidin-3-yl]oxy}pyridin-3-yl)-5-{[5-(trifluoromethyl)pyrazin-2-yl]amino}-1,2-thiazole-4-carboxamide], above 20 µM. Turning to `Cc1nsc(Nc2cnc(C(F)(F)F)cn2)c1C(=O)Nc1ccc(O[C@@H]2CCCN(CCC(F)(F)F)C2)nc1` [Example 387, 3-methyl-5-{[5-(trifluoromethyl)pyrazin-2-yl]amino}-N-(6-{[(3R)-1-(3,3,3-trifluoropropyl)piperidin-3-yl]oxy}pyridin-3-yl)-1,2-thiazole-4-carboxamide], the IC50 is above 20 µM.

Consider `Cc1nsc(Nc2cnc(C(F)(F)F)cn2)c1C(=O)Nc1ccc(OCC2CCN(CC(F)(F)F)CC2(F)F)nc1` (centres unmarked) [Example 392, N-(6-{[3,3-difluoro-1-(2,2,2-trifluoroethyl)piperidin-4-yl]methoxy}pyridin-3-yl)-3-methyl-5-{[5-(trifluoromethyl)pyrazin-2-yl]amino}-1,2-thiazole-4-carboxamide], for which the IC50 is above 20 µM. With `CCN1CCC(COc2ccc(NC(=O)c3c(C)nsc3Nc3cnc(C(F)(F)F)cn3)cn2)C(F)(F)C1` (centres unmarked) [Example 393, N-{6-[(1-ethyl-3,3-difluoropiperidin-4-yl)methoxy]pyridin-3-yl}-3-methyl-5-{[5-(trifluoromethyl)pyrazin-2-yl]amino}-1,2-thiazole-4-carboxamide] the figure was above 20 µM; with `Cc1nsc(Nc2cnc(C(F)(F)F)cn2)c1C(=O)Nc1ccc(F)c(OC[C@@H]2CCCN(CCC(F)(F)F)C2)c1` [Example 395, N-(4-fluoro-3-{[(3R)-1-(3,3,3-trifluoropropyl)piperidin-3-yl]methoxy}phenyl)-3-methyl-5-{[5-(trifluoromethyl)pyrazin-2-yl]amino}-1,2-thiazole-4-carboxamide], above 20 µM. In the case of `CCCCN1CCC(COc2ccc(NC(=O)c3c(C)nsc3Nc3cnc(C(F)(F)F)cn3)cn2)C(F)(F)C1` (centres unmarked) [Example 396, N-{6-[(1-butyl-3,3-difluoropiperidin-4-yl)methoxy]pyridin-3-yl}-3-methyl-5-{[5-(trifluoromethyl)pyrazin-2-yl]amino}-1,2-thiazole-4-carboxamide] it was above 20 µM; in that of `Cc1nsc(Nc2cnc(C(F)(F)F)cn2)c1C(=O)Nc1ccc(F)c(OC[C@H]2CCN(CC(F)F)C2)c1` [Example 397, N-(3-{[(3S)-1-(2,2-difluoroethyl)pyrrolidin-3-yl]methoxy}-4-fluorophenyl)-3-methyl-5-{[5-(trifluoromethyl)pyrazin-2-yl]amino}-1,2-thiazole-4-carboxamide], above 20 µM; in that of `Cc1nsc(Nc2cnc(C(F)(F)F)cn2)c1C(=O)Nc1ccc(F)c(OC[C@H]2CCN(CC(F)(F)F)C2)c1` [Example 398, N-(4-fluoro-3-{[(3S)-1-(2,2,2-trifluoroethyl)pyrrolidin-3-yl]methoxy}phenyl)-3-methyl-5-{[5-(trifluoromethyl)pyrazin-2-yl]amino}-1,2-thiazole-4-carboxamide], above 20 µM.

On to `Cc1nsc(Nc2cnc(C(F)(F)F)cn2)c1C(=O)Nc1ccc(F)c(OC[C@H]2CCN(CCC(F)(F)F)C2)c1` [Example 399, N-(4-fluoro-3-{[(3S)-1-(3,3,3-trifluoropropyl)pyrrolidin-3-yl]methoxy}phenyl)-3-methyl-5-{[5-(trifluoromethyl)pyrazin-2-yl]amino}-1,2-thiazole-4-carboxamide], for which the IC50 was above 20 µM.
